Measured values as given in patent US8092816B2, “Insecticidal compositions for control of general household pests” (priority 2004, dated 2012).

Key:
German cockroach [1] = test: Example 13: German cockroach mortality, bifenthrin and clothianidin; type: in vivo
From the text: (§1) The following examples further illustrate the present invention, but, of course, should not be construed as in any way limiting its scope. The examples set forth certain biological data illustrating the efficacy of the compositions of the present invention in controlling general household pests. Each example embodies a separate test wherein the pests were randomly selected from a population at a random age. As a result, from example to example, the ages of the pests can be very different. This age difference potentially translates to different baselines for each example. Therefore, data should only be compared within the example and not from example to example due to the differences in age of the pests from example to example. Unless otherwise indicated, all parts, percentages, and the like are by weight. The spray chamber used in the examples was approximately 76 inches tall, 73 inches long and 31 inches deep with an adjustable shelf (approximately 22 inches deep) and a movable spray nozzle. The spray chambers were calibrated to deliver a volume of approximately 1 gallon of liquid per 1000 square feet of area at about 14 pounds per square inch of pressure. A DeVilbiss hand held sprayer (Atomizer model 152) manufactured by DeVilbiss located in Glendale Heights, Ill. was used in testing house flies and mosquitoes. The DeVilbiss was used to apply approximately 3-5 milliliters of product at about 10 pounds per square inch.
(§2) The compositions of the present invention were tested for German cockroach activity in the following manner:
(§3) Test compositions made up of TALSTARONE® MULTI-INSECTICIDE and a 16% a.i. water dispersible granular of clothianidin in distilled water were prepared that provided appropriate rates of application of combinations of bifenthrin and clothianidin, as well as bifenthrin and clothianidin alone.
(§4) The spray chamber was then calibrated to deliver the treatment solution at the desired volume and pressure over the desired area on the chamber shelf. Spray chamber shelf height was adjusted to approximately 18 inches from the spray tip. The shelf was then covered with aluminum foil and the center of the shelf from front-to-back and end-to-end was determined. A desired number of 4.0″ sieve circles were marked on the aluminum foil with a permanent marker. The inside of a desired number of PVC rings were coated with a petroleum jelly/mineral oil mixture (1:2 ratio). The PVC rings were place on the sieve circles. 10 male German cockroaches were placed inside each PVC ring. The sprayer was activated and the test compound was applied to each PVC ring interior. German cockroach mortality was measured.

Oriental cockroach = test: Example 10: Oriental cockroach knockdown and mortality, bifenthrin and thiamethoxam; type: in vivo
From the text: as §1
The compositions of the present invention were tested for Oriental cockroach activity in the following manner:
Test compositions made up of TALSTARONE® MULTI-INSECTICIDE and a water dispersible granular of thiamethoxam (CENTRIC) in distilled water were prepared that provided appropriate rates of application of combinations of bifenthrin and thiamethoxam, as well as bifenthrin and thiamethoxam alone.
The spray chamber was then calibrated to deliver the treatment solution at the desired volume and pressure over the desired area on the chamber shelf. Spray chamber shelf height was adjusted to approximately 18 inches from the spray tip. The shelf was then covered with aluminum foil and the center of the shelf from front-to-back and end-to-end was determined. A desired number of 4.0″ sieve circles were marked on the aluminum foil with a permanent marker. The inside of a desired number of PVC rings were coated with a petroleum jelly/mineral oil mixture (1:2 ratio). The PVC rings were place on the sieve circles. 10 male Oriental cockroaches were placed inside each PVC ring. The sprayer was activated and the test compound was applied to each PVC ring interior. Oriental cockroach knockdown and mortality were measured.

German cockroach [2] = test: Example 1: German cockroach mortality, spray of bifenthrin and imidacloprid combinations; type: in vivo
From the text: as §1, §2
Test compositions made up of TALSTARONE® MULTI-INSECTICIDE and a wettable powder of imidacloprid (MERIT) in distilled water were prepared that provided appropriate rates of application of combinations of bifenthrin and imidacloprid, as well as bifenthrin and imidacloprid alone.
as §4

Red Imported Fire Ant = test: Example 16: red imported fire ant knockdown and mortality, bifenthrin and clothianidin; type: in vivo, Solenopsis invicta
From the text: as §1
The compositions of the present invention were tested for red imported fire ant activity in the following manner:
as §3
The spray chamber was then calibrated to deliver the treatment solution at the desired volume and pressure over the desired area on the chamber shelf. Spray chamber shelf height was adjusted to approximately 18 inches from the spray tip. The shelf was then covered with aluminum foil and the center of the shelf from front-to-back and end-to-end was determined. The red imported fire ants to be treated were collected and placed in screened 16 oz paper cups. The paper cups were placed onto the aluminum foil on the spray chamber shelf. The sprayer was activated and the test compound was applied to each paper cup interior. Red imported fire ant knockdown and mortality were measured.

[3] = rate of appln. 10 PPM (0.001% by weight)
[4] = rate of appln. 50 PPM (0.005% by weight)

Cc1c(COC(=O)[C@@H]2[C@H](/C=C(\Cl)C(F)(F)F)C2(C)C)cccc1-c1ccccc1 (racemic) [A, 2-methylbiphenyl-3-ylmethyl (Z)-(1RS)-cis-3-(2-chloro-3,3,3-trifluoroprop-1-enyl)-2,2-dimethylcyclopropanecarboxylate]
Mortality Rate @ 60 minutes (German cockroach [1]; [3]): 8% | Mortality Rate @ 120 minutes (German cockroach [1]; [3]): 33% | Mortality Rate @ 1 day (German cockroach [1]; [3]): 35% | Mortality Rate @ 2 days (German cockroach [1]; [3]): 60% | Mortality Rate @ 4 days (German cockroach [1]; [3]): 100% | Mortality Rate @ 60 minutes (German cockroach [1]; [4]): 15% | Mortality Rate @ 120 minutes (German cockroach [1]; [4]): 48% | Mortality Rate @ 1 day (German cockroach [1]; [4]): 58% | Mortality Rate @ 2 days (German cockroach [1]; [4]): 100% | Mortality Rate @ 4 days (German cockroach [1]; [4]): 100% | Knockdown Rate @ 15 minute (Oriental cockroach; 10 PPM, 0.001% by weight): 0% | Knockdown Rate @ 30 minute (Oriental cockroach; 10 PPM, 0.001% by weight): 0% | Mortality Rate @ 60 minutes (Oriental cockroach; 10 PPM, 0.001% by weight): 0% | Mortality Rate @ 120 minutes (Oriental cockroach; 10 PPM, 0.001% by weight): 0% | Mortality Rate @ 4 hours (Oriental cockroach; 10 PPM, 0.001% by weight): 0% | Mortality Rate @ 1 day (Oriental cockroach; 10 PPM, 0.001% by weight): 0% | Knockdown Rate @ 15 minute (Oriental cockroach; 50 PPM, 0.005% by weight): 0% | Knockdown Rate @ 30 minute (Oriental cockroach; 50 PPM, 0.005% by weight): 0% | Mortality Rate @ 60 minutes (Oriental cockroach; 50 PPM, 0.005% by weight): 0% | Mortality Rate @ 120 minutes (Oriental cockroach; 50 PPM, 0.005% by weight): 0% | Mortality Rate @ 4 hours (Oriental cockroach; 50 PPM, 0.005% by weight): 0% | Mortality Rate @ 1 day (Oriental cockroach; 50 PPM, 0.005% by weight): 45% | Mortality Rate @ 60 minutes (German cockroach [2]; 10 PPM, 0.001% by weight): 3% | Mortality Rate @ 120 minutes (German cockroach [2]; 10 PPM, 0.001% by weight): 33% | Mortality Rate @ 1 day (German cockroach [2]; 10 PPM, 0.001% by weight): 33% | Mortality Rate @ 2 days (German cockroach [2]; 10 PPM, 0.001% by weight): 60% | Mortality Rate @ 60 minutes (German cockroach [2]; 50 PPM, 0.005% by weight): 30% | Mortality Rate @ 120 minutes (German cockroach [2]; 50 PPM, 0.005% by weight): 48% | Mortality Rate @ 1 day (German cockroach [2]; 50 PPM, 0.005% by weight): 58% | Mortality Rate @ 2 days (German cockroach [2]; 50 PPM, 0.005% by weight): 100% | Knockdown Rate @ 5 minute (Red Imported Fire Ant; [3]): 30% | Knockdown Rate @ 10 minute (Red Imported Fire Ant; [3]): 93% | Knockdown Rate @ 15 minute (Red Imported Fire Ant; [3]): 95% | Knockdown Rate @ 30 minutes (Red Imported Fire Ant; [3]): 100% | Mortality Rate @ 60 minutes (Red Imported Fire Ant; [3]): 65% | Mortality Rate @ 120 minutes (Red Imported Fire Ant; [3]): 100% | Mortality Rate @ 4 hours (Red Imported Fire Ant; [3]): 100% | Knockdown Rate @ 5 minute (Red Imported Fire Ant; [4]): 10% | Knockdown Rate @ 10 minute (Red Imported Fire Ant; [4]): 70% | Knockdown Rate @ 15 minute (Red Imported Fire Ant; [4]): 95% | Knockdown Rate @ 30 minutes (Red Imported Fire Ant; [4]): 100% | Mortality Rate @ 60 minutes (Red Imported Fire Ant; [4]): 100% | Mortality Rate @ 120 minutes (Red Imported Fire Ant; [4]): 100% | Mortality Rate @ 4 hours (Red Imported Fire Ant; [4]): 100%
